Here are results for 4 substances from patent US6664224B2, “Quaternary ammonium salt and process for the preparation thereof” (priority 2000, dated 2003).

The test system of series [1] is Escherichia coli K12 W 3110. As to the kind of experiment: Minimum development inhibiting concentration (MIC) against bacteria, broth dilution method. The conditions noted are these: 37° C. 24 hours. The format is cell-based. The procedure: A bacteria solution in stationary state which had been adjusted with a nutrient broth according to an ordinary broth dilution method such that the concentration of bacterial suspension reached 10^6 cell/ml was added to chemical solutions having concentrations which vary stepwise where it was then allowed to stand at a temperature of 37° C. for 24 hours for culture. The bacteria solution was then examined to see if the proliferation of bacteria occurred. Thus, MIC was determined.
Escherichia coli K12 W 3110 was used as a sample bacterium. Compounds obtained in Examples 1 to 9 and benzalkonium chloride prepared in Comparative Example 1 were used as test samples.
The compounds obtained in Examples 10 to 19 and benzalkonium chloride were determined for MIC value against Escherichia coli K12 W 3110 in the same manner as in Test Example 3.
For orientation: Dilution methods test growth across graded concentrations, often in twofold steps.

Another series deals with rat. Nature of the series: Oral toxicity test on rat (LD50). The format is in vivo. Here is the method:
The quaternary ammonium salt of the invention is a compound having an extremely high safety, i.e., LD50 (rat) of not smaller than 2,000 mg/kg in oral toxicity test on rat.
The sample 4BAMP-6C thus obtained was then determined for oral toxicity (LD50: rat). The results were greater than 2,000 mg/kg.

For series [2], the system named is Bacillus substilis ATCC 6633. Nature of the series: Minimum bactericidal concentration (MBC) against bacteria. Type of series: cell-based, Bacillus subtilis. The conditions noted are these: contact 30° C. 30 minutes, culture 37° C. 24 hours. Here is the method: (§1) A bacteria solution in the initial stage of logarithmic productive phase which had been adjusted with a nutrient broth according to an ordinary sterilized water dilution method such that the concentration of bacterial suspension reached 10^6 cell/ml was brought into contact with chemical solutions having concentrations which vary stepwise at a temperature of 30° C. for 30 minutes, and then transplanted to a nutrient broth where it was then allowed to stand at a temperature of 37° C. for 24 hours for culture. The nutrient broth was then examined to see if the proliferation of bacteria occurred. Thus, MBC was determined.
(§2) Five kinds of gram-negative bacteria and four kinds of gram-positive bacteria were used as sample bacteria.
(§3) BAMP-6 (Example 12), BAMD-6,8 (Example 13), BAMT-6 (Example 17) and benzalkonium chloride (Comparative Example 1) were determined for MBC value against 5 kinds of gram-negative bacteria and 4 kinds of gram-positive bacteria in the same manner as in Test Example 1.

In the next series the test system is Erythrocyte. Nature of the series: Minimum hemolytic activity concentration against erythrocyte. Type of series: cell-based. The conditions noted are these: human erythrocyte, 37° C. 1 hour, O.D.540, 50% hemolysis. Here is the method: Human blood was collected. The sample blood was then mixed with the equal amount of alsebar solution (glucose: 2.05 g; NaCl: 0.42 g; sodium citrate: 0.8 g; citric acid: 0.55 g; pH: 6.1). The mixture was then stored at a temperature of 4° C. Shortly before used for experiment, the alsebar stored blood was subjected to centrifugal separation. Thus, the supernatant liquid and the leukocyte layer on the erythrocyte were removed. To the erythrocyte was then added PBS in an amount of […] that of the erythrocyte to obtain a 50% erythrocyte. 10 μl of the 50% erythrocyte was then mixed with 990 μl of each of chemicals which had been diluted with PBS in amounts varying stepwise. The erythrocyte was acted upon by the chemical at a temperature of 37° C. for 1 hour. The mixture was then subjected to centrifugal separation. The supernatant liquid was collected for the measurement of the optical density at 540 nm (O.D.540). Separately, the foregoing procedure was followed except that no chemicals were used to prepare a 0% hemolytic control. The foregoing procedure was followed except that Milliq water was used instead of PBS to prepare a 100% hemolytic control. For the minimum hemolytic activity concentration of chemical, the minimum concentration at which the hemolytic concentration is […] was determined.

Another series relates to Bacillus cereus IFO 3001. As to the kind of experiment: Minimum bactericidal concentration (MBC) against bacteria. Type of series: cell-based. The conditions noted are these: contact 30° C. 30 minutes, culture 37° C. 24 hours. Here is the method:
as §1, §2, §3

The subject of series [3] is Pseudomonas aeruginosa ATCC 27583. The series is described as above. The format is cell-based. The conditions noted are these: contact 30° C. 30 minutes, culture 37° C. 24 hours. The procedure: as §1, §2, §3
In series [4] the test system is Escherichia coli K12 W 3110. The series is described as above. The format is cell-based. The conditions noted are these: contact 30° C. 30 minutes, culture 37° C. 24 hours. Here is the method:
as §1, §2, §3

In series [5] the test system is Escherichia coli K12 OUT 8401. The description is as above. Type of series: cell-based. The conditions noted are these: contact 30° C. 30 minutes, culture 37° C. 24 hours. Here is the method: as §1, §2, §3
A further series deals with Proteus rettgeri NIT 96. The description is as above. Type of series: cell-based. The conditions noted are these: contact 30° C. 30 minutes, culture 37° C. 24 hours. The procedure: as §1, §2, §3
The subject of series [6] is Bacillus subtilis IFO 3134. The series is described as above. The format is cell-based. The conditions noted are these: contact 30° C. 30 minutes, culture 37° C. 24 hours. Here is the method:
as §1, §2, §3

Series [7] deals with Staphylococcus aureus IFO 12732. The series is described as above. The conditions noted are these: contact 30° C. 30 minutes, culture 37° C. 24 hours. Type of series: cell-based. Here is the method:
as §1, §2, §3

The subject of series [8] is Klebsiella pneumoniae ATCC 13883. Described as above. Type of series: cell-based. The conditions noted are these: contact 30° C. 30 minutes, culture 37° C. 24 hours. Here is the method:
as §1, §2, §3

Series [9] concerns Candida albicans ATCC10231. Nature of the series: Minimum development inhibiting concentration (MIC) against fungi. The format is cell-based. The conditions noted are these: C. albicans; spore solution, 27° C. 1 week. Here is the method: (§4) A sample fungus which had been pre-cultured was diluted with a wetting agent-containing sterilized water according to an ordinary broth dilution method to prepare a spore solution. 1 ml of the spore solution was then mixed with 1 ml of each of chemical solutions having concentrations which vary stepwise. The mixture was then cultured at a temperature of 27° C. in an incubator for 1 week. The culture was then examined for turbidity to see if the proliferation of fungus occurred. The minimum concentration at which no turbidity occurs was defined to be MIC.
(§5) Aspergillus niger IFO 6431 (A. niger) and Candida albicans ATCC10231 (C. albicans) were used as sample microorganisms.

The subject of series [10] is Aspergillus niger IFO 6431. The description is as above. The format is cell-based. The conditions noted are these: A. niger; spore solution, 27° C. 1 week. The procedure: as §4, §5
Series [11] concerns Escherichia coli K12 W 3110. As to the kind of experiment: MIC by agar plate dilution method. The format is cell-based. The conditions noted are these: E. coli, 37° C. 24 hours. The procedure:
(§6) MIC value was determined by an agar plate dilution method according to the Law of Japanese Society of Chemotherapy. In some detail, a bacteria solution in stationary state which had been adjusted with a nutrient broth such that the concentration of bacterial suspension reached 10^6 cell/ml was added to agar culture media containing chemical solutions having concentrations which vary in two stages where it was then allowed to stand at a temperature of 37° C. for 24 hours for culture. The bacteria solution was then examined to see if the proliferation of bacteria occurred. Thus, MIC was determined.
(§7) The following three kinds of bacteria were used as sample bacteria:
Escherichia coliK12 W 3110 (E. coli);

In series [12] the test system is Staphylococcus aureus IFO 12732. Nature of the series: MIC by agar plate dilution method. The conditions noted are these: S. aureus, 37° C. 24 hours. Type of series: cell-based. The procedure: as §6, §7
Staphylococcus aureus IFO 12732 (S. aureus)

Series [13] deals with Pseudomonas aeruginosa ATCC27583. Nature of the series: MIC by agar plate dilution method. Type of series: cell-based. The conditions noted are these: P. aeruginosa, 37° C. 24 hours. Here is the method:
as §6, §7
Pseudomonas aeruginosa ATCC27583 (P. auruginosa); and […]

Take “1,4-bis(N,N-dihexyl-N-methylammoniomethyl)-2,3,5,6-tetramethylphenylene dichloride [BAMD-6]”: the “MIC Escherichia coli K12 W 3110” value in series [1] stood at 1 ppm. The “oral toxicity LD50” value with rat is reported as “greater than 2,000 mg/kg”. Also, the MBC was less than 2 ppm in series [2]; less than 2 ppm in the series on Bacillus cereus IFO 3001; 4 ppm in series [3]; 4 ppm in series [4]; less than 2 ppm in series [5]; less than 2 ppm with Proteus rettgeri NIT 96. Moreover, the MBC in series [6], in [7] and in [8] was less than 2 ppm in each case. Besides, in the series with Erythrocyte, the “Minimum hemolytic activity concentration Erythrocyte” value stood at 400 ppm.
Regarding “1,4-bis(N,N-dihexyl-N-methylammoniomethyl)phenylene di-p-toluenesulfonate [Example 4BAMP-6S]”, in series [1], the “MIC Escherichia coli K12 W 3110” value is recorded as 2 ppm. The “oral toxicity LD50” value with rat is recorded as “greater than 2,000 mg/kg”. Besides, the MBC in series [2] is on record as less than 2 ppm; with Bacillus cereus IFO 3001, 4 ppm; in series [3], 8 ppm; in series [4] it was 8 ppm; in series [5], 4 ppm; in the series on Proteus rettgeri NIT 96, less than 2 ppm. Further, the MBC in series [6], in series [7] and in series [8] was less than 2 ppm in each case.
As for “1,4-bis(N,N-dipentyl-N-methylammoniomethyl)phenylene dichloride [Example 4BAMP-5C]”, the MIC is recorded as 8 ppm in series [9]; 16 ppm in series [10]; 16 ppm in series [11]; less than 2 ppm in [12]; 4 ppm in series [13]. Moreover, the “Minimum hemolytic activity concentration Erythrocyte” value in the series on Erythrocyte is reported as 1,600 ppm.
In the case of “1,4-bis(N-octyl-N-hexyl-N-methylammoniomethyl)phenylene dibromide [4BAMP-6, 8B]”, the MIC is less than 2 ppm in [9]; 8 ppm in series [10]; 8 ppm in [11]; less than 2 ppm in [12]; less than 2 ppm in series [13].
